Experiment [1] deals with intersegmental vasculature in zebrafish. In words: Quantification of intersegmental vessel number in zebrafish. The format is in vivo. Particulars: 10 μM; zebrafish embryos treated 6 hpf to 48 hpf. The protocol: At 6 hours post fertilisation, 5 embryos per well were placed in 400 μL of embryo medium/0.1% DMSO and incubated with 10 μM compound at 28° C. on a 14 h light/10 h dark cycle. At 48 hpf larvae were manually dechorionated, euthanised, and fixed in 4% PFA at 4° C. overnight before analysis. The larvae were then washed with PBS and transferred to depression slides for observation under epi-fluorescence in an Olympus SZX16 fluorescent microscope. The number of intersegmental vessels was counted and the average number was graphed for each drug.
(§1) All experimental protocols were carried out as per example 1 and 2. Briefly, zebrafish larvae were treated with 10 μM of AT-051/41206012 (chemical name 2-[2-(2-methoxyphenyl)ethenyl]pyrazine) purchased from Specs (The Netherlands). At 6 or 48 hours post fertilisation (hpf), 5 embryos per well were placed in 400 μl of Embryo Medium/0.1% DMSO and incubated with 10 μM AT-051/41206012 at 28° C. on a 14 h light/10 h dark cycle. Larvae were treated from 6-48 hpf (intersegmental vessel study) or from 48 to 120 hpf (primary hyaloid vessel study). At the end of the study, larvae were euthanized and fixed in 4% PFA at 4° C. overnight before analysis.
(§2) The number of intersegmental vessels was counted and the average number was graphed for each drug. Right lenses were dissected from the larvae and transferred to depression slides for observation and the number of primary hyaloid vessels radiating from the back of the lens (3-4 main branches at 5 dpf in controls and previously described), was counted and the average number was graphed for each drug.

Experiment [2] relates to oxygen induced mouse model of retinopathy. As to the kind of experiment: Mouse oxygen-induced retinopathy model of neovascularisation. The format is in vivo. Particulars: 5 and 20 μM; intravitreal injection on P12, retinas analysed P17; mouse OIR; hydrochloride. The source says:
The mouse oxygen-induced retinopathy model was used to test the anti-angiogenic activity of compounds 4, 12 and 18. Mouse pups (together with their dams) were placed in 75% oxygen from postnatal day (P) 7 to P12, causing a regression of their retinal blood vessels. On P12, pups were placed back in normoxia (21%) causing a regrowth of retinal blood vessels. Pups received an intravitreal injection on P12, of compound 4, 12, 18 or vehicle control—Hank's Balanced Salt Solution, coinciding with their return to normoxia. Pups were culled on P17 and enucleated. Eyes were fixed in 4% paraformaldehyde, washed and dissected to form retinal flatmounts. Flatmounts were stained with isolectin to visualise blood vessels and imaged. The central avascular area (lacking a network of blood vessels) was quantified using FIJI image analysis software.

Experiment [3] concerns primary hyaloid vessels in zebrafish. As to the kind of experiment: Quantification of primary hyaloid vasculature branch number in Tg(fli1:EGFP) zebrafish. The format is in vivo. The protocol:
All experiments were carried out under ethical approval granted by the UCD animal research ethics committee. Tg(fli1:EGFP) zebrafish were maintained according to standard procedures on a 14 hr light/10 hr dark cycle at 28° C. Embryos were obtained by natural spawning and developmental stages established by time and morphological criteria. At 48 hours post fertilisation (hpf), 5 embryos per well were placed in 400 μl of Embryo Medium/0.1% DMSO and incubated with compound (typically, 10 μM) at 28° C. on a 14 h light/10 h dark cycle. At 5 days post fertilisation (dpf), larvae were euthanised, and fixed in 4% PFA at 4° C. overnight before analysis.
Prior to analysis of the intraocular vasculature, the control and treated larvae were observed under an Olympus SZX16 stereo zoom microscope and screened for general malformations. Overall patterning of the vasculature (fin, gut and intersegmental vessels) was examined for abnormalities. Right lenses were dissected from the larvae and transferred to depression slides for observation under epi-fluorescence in the Olympus SZX16. Patterning of the hyaloid vessels on the treated larval lenses was compared to 0.1% DMSO controls and the archetypal pattern previously described (Alvarez et al., 2007; Alvarez et al., 2009). The number of primary vessels radiating from the back of the lens (3-4 main branches at 5 dpf in controls and previously described), was counted and the average number was graphed for each drug.
as §1, §2

The subject of experiment [4] is mouse aortic ring. In words: Ex vivo mouse aortic ring assay (sprout formation). Particulars: 10 μM; C57/BL6 mouse aortic rings in matrigel; vs 0.1% DMSO; hydrochloride. The procedure: Aortae from sex matched C57/BL6 littermates were cleansed of adipose tissue, cut into 2 mm rings and immersed in matrigel. Aortic rings (6 per experiment) were treated with 0.1% DMSO (vehicle control/VC) or with 10 μM of Compound 4, Compound 12, Compound 15 or Compound 20. Sprouts from the perimeter of the aortic ring were counted and quantified as percentage of vehicle control (VC).

Entries after “also recorded” stand apart in the source; their conditions may differ.

Regarding `C/C(=C\c1ccccc1O)c1cnccn1.Cl` [Compound 12, (E)-2-[2-(Pyrazin-2-yl)prop-1-enyl]phenol hydrochloride], the “inhibition of developmental angiogenesis of intersegmental vessels (number of intersegmental vessels)” value in experiment [1] was “inhibit developmental angiogenesis of zebrafish intersegmental vessels in a statistically significant manner”. In experiment [2], the “retinal neovascularisation / revascularisation (central avascular area)” value is on record as “significantly reduces retinal neovascularisation; also recorded: inhibits retinal revascularisation in a statistically significant manner”. Moreover, the “inhibition of developmental angiogenesis of the hyaloid vasculature (number of primary hyaloid vessels)” value is “inhibit developmental angiogenesis of the zebrafish hyaloid vasculature in a statistically significant manner” in experiment [3] (10 μM, zebrafish larvae treated 48 hpf to 5 dpf, vs 0.1% DMSO control); “inhibit developmental angiogenesis of the zebrafish hyaloid vasculature in a statistically significant manner” in experiment [3] (concentrations below 10 μM (range 1, 2.5, 5, 7.5 and 10 μM tested), zebrafish larvae 48 hpf to 5 dpf). In addition, the “angiogenesis (sprout formation) in aortic rings” value in experiment [4] is given as “block angiogenesis (sprout formation); also recorded: inhibit the formation of sprouts in a statistically significant manner”.

The values are drawn from patent publication US9975860B2, “Anti-angiogenic compounds” (UNIVERSITY COLLEGE DUBLIN—NATIONAL UNIVERSITY OF IRELAND, …, priority 2014, dated 2018).
